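These data come from cells grown in 96-well plates and exposed to compound for 48 hours at five concentrations. At the GI50, growth is halved.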 Calls of active or inactive are those of the source. Cut-off read from the data, not from the text of the source: active = GI50 up to about 1.1 µM and inactive = higher. Where only a bound is given, the exact number is not on record here.

Among the test systems are A549; BT-549; COLO 205; HCC 2998; HCT-15; HL-60; HT-29; Hs-578T; KM12; M14; NCI-H226; NCI-H522; NCI/ADR-RES; OVCAR-4; SK-MEL-28; SK-MEL-5; SK-OV-3; SR; UACC-257; RXF 393.
Holding throughout (experiment): inhibition of tumour cell growth, NCI panel, 48 h

As to `Cc1cccc(/C=N/NC(=S)N(C)CCc2ccccn2)n1`, the GI50 with A549 is 0.417 µM (active); in the assay with BT-549, 0.857 µM (active); in the assay on COLO 205, 0.183 µM (active); in the assay on HCC 2998 it was 0.453 µM (active); in the assay on HCT-15, 0.196 µM; with HL-60, 0.0429 µM (active). The GI50 was 0.265 µM (active) in the assay with HT-29; > 33 µM (inactive) with Hs-578T; 0.687 µM (active) with KM12; 0.329 µM (active) in the assay with M14; 0.39 µM (active) with NCI-H226; 0.214 µM (active) with NCI-H522. For the same molecule, the GI50 in the assay with NCI/ADR-RES is 0.269 µM (active); with OVCAR-4 it was 22.9 µM (inactive); in the assay on SK-MEL-28, 0.501 µM (active); in the assay with SK-MEL-5 it was 0.314 µM (active); in the assay on SK-OV-3, 0.541 µM (active); in the assay with SR, 0.246 µM (active). For the same molecule, the GI50 with UACC-257 is 0.448 µM (active).

Take `COc1cc(C2C(C#N)=C(N)OC3=C2CCS(=O)(=O)c2ccc(C)cc23)cc(OC)c1OC` (configuration not stated): the GI50 is > 100 µM (inactive) in the assay with A549; > 100 µM (inactive) in the assay on BT-549; > 100 µM (inactive) with COLO 205; > 100 µM (inactive) in the assay on HCC 2998; above 100 µM with HCT-15; > 100 µM (inactive) in the assay on HL-60. The GI50 in the assay with HT-29, in the assay on Hs-578T, with KM12, in the assay with M14, in the assay on NCI-H226 and in the assay on NCI-H522 was > 100 µM (inactive) in each case. Besides, the GI50 with NCI/ADR-RES was > 100 µM (inactive); with OVCAR-4, > 100 µM (inactive); in the assay on SK-MEL-28 it was > 100 µM (inactive); in the assay on SK-MEL-5, > 100 µM (inactive); in the assay with SR, 47.8 µM (inactive); with UACC-257, > 100 µM (inactive).

For `CSC1NC(c2ccc(Cl)cc2)=C(C#N)C(=O)N1C1OCC(OC(C)=O)C(OC(C)=O)C1OC(C)=O` (configuration not stated), the GI50 is > 100 µM (inactive) with BT-549; > 100 µM (inactive) in the assay on COLO 205; > 100 µM (inactive) in the assay on HCC 2998; 62.1 µM with HCT-15; > 100 µM (inactive) in the assay with HT-29; > 100 µM (inactive) in the assay on Hs-578T. Besides, the GI50 in the assay with KM12, with M14, with NCI-H226, in the assay on NCI-H522, in the assay with NCI/ADR-RES and with OVCAR-4 was > 100 µM (inactive) each time. The GI50 is > 100 µM (inactive) with SK-MEL-28; 81.1 µM (inactive) in the assay on SK-MEL-5; > 100 µM (inactive) in the assay with SK-OV-3; 24.5 µM (inactive) with SR; > 100 µM (inactive) with UACC-257.

In the case of `COc1ccc2nc(-c3ccc(O)cc3)cn2c1`, the GI50 was 64 µM (inactive) with A549; > 100 µM (inactive) in the assay on BT-549; 43.5 µM (inactive) in the assay on COLO 205; 48.8 µM with HCT-15; 46.6 µM (inactive) with HT-29; 73.1 µM (inactive) in the assay with Hs-578T. For the same molecule, the GI50 in the assay with KM12 is 50.2 µM (inactive); with M14, 47.4 µM (inactive); in the assay on NCI-H226, > 100 µM (inactive); in the assay on NCI-H522, 32 µM (inactive); in the assay on NCI/ADR-RES, 65.8 µM (inactive); in the assay on OVCAR-4, 73.8 µM (inactive). The GI50 was > 100 µM (inactive) with RXF 393; 85.5 µM (inactive) with SK-MEL-28; 16.6 µM (inactive) in the assay on SK-MEL-5; > 100 µM (inactive) in the assay on SK-OV-3; 10 µM (inactive) with SR.

`CCOC(=O)/C(C(N)=O)=C(O)/C(O)=C/C(=O)c1ccc(Cl)cc1`: the GI50 with A549 was 32.4 µM (inactive); in the assay with BT-549 it was 18 µM (inactive); in the assay with COLO 205, 17.8 µM (inactive); with HCT-15, 17.7 µM; in the assay with HT-29, 21.8 µM (inactive); in the assay on Hs-578T, 42.1 µM (inactive). Also, the GI50 with KM12 was 17.3 µM (inactive); in the assay with M14, 21.2 µM (inactive); in the assay with NCI-H226, 23.2 µM (inactive); in the assay on NCI-H522, 16.2 µM (inactive); in the assay on NCI/ADR-RES, 21.4 µM (inactive); with OVCAR-4 it was 34.4 µM (inactive). The GI50 was 15.9 µM (inactive) in the assay on RXF 393; 24.8 µM (inactive) in the assay on SK-MEL-28; 19.9 µM (inactive) in the assay with SK-MEL-5; 20.6 µM (inactive) with SK-OV-3; 21.7 µM (inactive) in the assay with SR; 16 µM (inactive) in the assay with UACC-257.

In the case of `CC(Br)C(=O)NC(CO)C(=O)O` (configuration not stated), the GI50 is > 100 µM (inactive) with A549; > 100 µM (inactive) in the assay on BT-549; > 100 µM (inactive) with COLO 205; above 100 µM in the assay on HCT-15; > 100 µM (inactive) with HL-60; > 100 µM (inactive) in the assay on HT-29. Further, the GI50 in the assay on Hs-578T, in the assay with KM12, in the assay with M14, in the assay with NCI-H226, with NCI-H522 and in the assay with NCI/ADR-RES was > 100 µM (inactive) in each case. Further, the GI50 in the assay with OVCAR-4, in the assay on RXF 393, in the assay with SK-MEL-28, in the assay on SK-MEL-5, in the assay on SK-OV-3 and in the assay with SR was > 100 µM (inactive) each time. In the assay on UACC-257, the GI50 was > 100 µM (inactive).

As for `CC1=C2c3c(C)ccc4ccc(C)c(c34)C2(O)C(C)C1=O` (configuration not stated), the GI50 with A549 was 40.3 µM (inactive); in the assay on BT-549, 21 µM (inactive); in the assay on COLO 205 it was 28.8 µM (inactive); with HCC 2998, > 100 µM (inactive); in the assay with HCT-15, 42.8 µM; in the assay with HL-60, 28.2 µM (inactive). The GI50 with HT-29 was > 100 µM (inactive); in the assay on Hs-578T, 35.1 µM (inactive); in the assay on KM12, 41.3 µM (inactive); with M14 it was 62.2 µM (inactive); with NCI-H226, > 100 µM (inactive); in the assay on NCI-H522, 47.2 µM (inactive). The GI50 in the assay with NCI/ADR-RES is 15.2 µM (inactive); in the assay on OVCAR-4 it was 65 µM (inactive); in the assay on SK-MEL-28, 84.3 µM (inactive); in the assay with SK-MEL-5 it was 29.2 µM (inactive); with SK-OV-3, 52.7 µM (inactive); with SR, > 100 µM (inactive). For the same molecule, the GI50 with UACC-257 was 53.8 µM (inactive).

With `C=C1CC(C#N)(C#N)[C@@H]2CC3CCCC3[C@H]12.C=C1CC(C#N)(C#N)[C@H]2C3CCCC3C[C@@H]12` (some centres not stated), the GI50 with A549 was 10 µM (inactive); in the assay on BT-549, 25.9 µM (inactive); in the assay on HCT-15 it was 15.9 µM; in the assay with HL-60, 20.5 µM (inactive); with HT-29, 14 µM (inactive); in the assay on Hs-578T, 35.9 µM (inactive). Further, the GI50 was 20.1 µM (inactive) with KM12; 15.6 µM (inactive) in the assay with M14; 25.3 µM (inactive) in the assay on NCI-H226; 23.9 µM (inactive) in the assay on NCI/ADR-RES; 22.1 µM (inactive) in the assay on RXF 393; 21.2 µM (inactive) with SK-MEL-28. Moreover, the GI50 in the assay with SK-MEL-5 is 24.7 µM (inactive); with SK-OV-3 it was 25.4 µM (inactive); in the assay on SR, 14.6 µM (inactive).

For the origin of these results see ChEMBL document CHEMBL1201862, “PubChem BioAssay data set” (2004).
